Tested on: SH-S5Y5 neuroblastoma cells
Test: Cell viability (MTT) in response to Aβ, in vitro model of Alzheimer's disease
Assay type: cell-based
Settings: 20 μM Aβ, 24 h
Text: The SH-S5Y5 neuroblastoma cell line was used for pre-clinical analysis. The SH-S5Y5 cell line is commonly used as a model for neurodegenerative disorders as the cells can be converted to various types of functional neurons by the addition of specific compounds (see, e.g., Xicoy et al., 2017, Molecular Neurodegeneration, 12: 10). In addition, the SH-S5Y5 cell line has been used widely in experimental neurological studies, including analysis of neuronal differentiation, metabolism, and function related to neurodegenerative processes, neurotoxicity and neuroprotection (see, e.g., Datki et al., 2003, Brain Research Bulletin, 62(3): 22-229; and Xie et al., 2010, Chinese Medical Journal, 123(8): 1086-1092).
100 μL MTT reagent was added to each well (final concentration 0.5 mg/mL). Cells were then incubated at 37 °C, 5% CO2 for 4 hours. Solubilization buffer (100 μL) was then added to each well and further incubated at 37 °C, 5% CO2 for 24 hours. Absorbance was then measured by spectrophotometer at 550-600 nm and background corrected at 650 nm.
Amyloid-β (Aβ; 1 mg) was dissolved in 2 mL of 1,1,1,3,3,3-hexafluoro-2-propanol (HFIP). An additional 200 μL of HFIP was then added due to volatility. The Aβ was sealed with parafilm and vortexed for 30 seconds before aliquoting at 100 μL per 1.5 mL tube. HFIP was then evaporated in fume hood for 8 hours. Tubes were then sealed with lid and parafilm and stored at −80 °C. Prior to use, Aβ was reconstituted in DMSO to a final volume of 10% v/v for 10-15 min at RT and vortexed every 3-5 min. F-12 medium was then added to a final volume of 90% v/v. Aβ was then stored at 4 °C for 24 hours and vortexed before use.
Cells were seeded in 96-well microplates and incubated 37 °C, 5% CO2 for 24 hours.

COc1cc2c(cc1OC)C(=O)C(CC1CCN(Cc3ccccc3)CC1)C2 (centres unmarked) [Donepezil]
Cell viability as measured by MTT (Donepezil 2.5 μM): −0.036 | Cell viability as measured by MTT (Donepezil 5 μM): −0.021 | Cell viability as measured by MTT (Donepezil 10 μM): 0.021 | Cell viability as measured by MTT (Donepezil 20 μM): −0.011 | Cell viability as measured by MTT (Donepezil 30 μM): −0.013
